In the test the test system is ApoB-100-associated lipoproteins (HepG2 cells). Nature of the test: Inhibition of the release of ApoB-100-associated lipoproteins from HepG2 liver cells (immunoassay of culture supernatant). In kind it is cell-based. Conditions: Homo sapiens, substance concentration at which light absorption (450 nm) is inhibited by 50% vs solvent control, read-out: Apo B IC50. Here is the method:
The test for detection of the inhibition of the release of ApoB-100-associated lipoproteins from liver cells was carried out in vitro using cultured liver cells, preferably using cells of the human line HepG2. These cells are cultured under standard conditions in medium for the culture of eucaryotic cells, preferably in RPMI 1640 using 10% foetal calf serum. HepG2 cells synthesize and secrete into the culture supernatant ApoB-100-associated lipoprotein particles, which in principle are of similar construction to the VLDL or LDL particles which are to be, found in the plasma.
These particles can be detected using an immunoassay for human LDL. This immunoassay is carried out using antibodies which have been induced under standard conditions in the rabbit to human LDL. The anti-LDL antibodies (rabbit anti-LDL-Ab) were purified by affinity chromatography on an immunosorbent using human LDL. These purified rabbit anti-LDL-Ab are adsorbed onto the surface of plastic. […] The immune complex on the plastic surface is detected using monoclonal antibodies which have been induced against human LDL and purified according to standard conditions. […] After acidification of the reaction mixture with H2 SO4, the specific light absorption at 450 nm is determined, which is a measure of the amount of ApoB-100-associated particles which have been secreted into the culture supernatant by the HepG2 cells. […]

Take `Cc1cc(C)c2c3ccccc3n(Cc3ccc([C@@H](C(=O)Nc4ccccc4)C4CCCC4)cc3)c2n1` [Example 2]: the IC50 (as a rule, the point on the concentration scale where inhibition reaches its midpoint) came out at 8.2 nM.

As for `CCCCCNC(=O)[C@H](c1ccc(Cn2c3ccccc3c3c(C)cc(C)nc32)cc1)C1CCCC1` [Example 20], the IC50 was 12.5 nM.

(Values after patent US6194424A, “Arylacetamides and their use as medicaments” (Bayer Aktiengesellschaft, priority 1996, dated 2001).)
